Measurements taken from ChEMBL document CHEMBL1201862, “PubChem BioAssay data set” (2004).
Activity calls are given as the source filed them.

Key:
fMet-Leu-Phe receptor = molecular target: T1, fMet-Leu-Phe receptor (Homo sapiens, UniProt P21462); test: FPR ligands, dose response (AID 519); format: functional
T1 sequence (P21462 whole entry): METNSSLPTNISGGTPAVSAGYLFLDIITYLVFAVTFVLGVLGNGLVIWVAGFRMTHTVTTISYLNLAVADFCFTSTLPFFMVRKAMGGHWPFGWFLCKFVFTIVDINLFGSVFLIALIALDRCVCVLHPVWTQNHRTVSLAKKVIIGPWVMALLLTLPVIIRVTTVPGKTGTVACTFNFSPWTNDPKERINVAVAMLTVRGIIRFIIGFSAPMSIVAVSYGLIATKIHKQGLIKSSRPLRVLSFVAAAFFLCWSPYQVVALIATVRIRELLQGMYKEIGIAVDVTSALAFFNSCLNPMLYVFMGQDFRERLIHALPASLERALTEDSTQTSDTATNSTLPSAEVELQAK

Galanin receptor type 3 = molecular target: T2, Galanin receptor type 3 (Homo sapiens, UniProt O60755); test: Fluorescence-based cell-based primary high throughput dose response assay to identify antagonists of the Galanin Receptor 3 (GalR3).; format: functional
T2 sequence (O60755 whole entry): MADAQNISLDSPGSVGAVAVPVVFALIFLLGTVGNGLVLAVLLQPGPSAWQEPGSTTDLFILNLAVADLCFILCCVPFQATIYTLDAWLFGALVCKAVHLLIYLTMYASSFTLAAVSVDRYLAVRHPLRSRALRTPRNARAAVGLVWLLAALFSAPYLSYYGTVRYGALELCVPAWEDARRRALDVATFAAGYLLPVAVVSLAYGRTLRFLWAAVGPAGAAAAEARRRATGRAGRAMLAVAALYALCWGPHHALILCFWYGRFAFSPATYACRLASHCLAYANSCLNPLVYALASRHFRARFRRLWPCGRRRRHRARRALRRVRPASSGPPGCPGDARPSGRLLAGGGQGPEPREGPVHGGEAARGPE

cells = format: functional, cell-based; details: HEK-CNG
[1] = molecular target: T3, Corticotropin-releasing factor receptor 2/Corticotropin-releasing factor-binding protein (Homo sapiens, UniProt P24387+Q13324); test: Dose Response confirmation of uHTS hits for small molecule antagonists of the CRF-binding protein and CRF-R2 receptor complex.; format: functional; details: read-out: IC50_Mean
T3 sequence (Q13324 whole entry): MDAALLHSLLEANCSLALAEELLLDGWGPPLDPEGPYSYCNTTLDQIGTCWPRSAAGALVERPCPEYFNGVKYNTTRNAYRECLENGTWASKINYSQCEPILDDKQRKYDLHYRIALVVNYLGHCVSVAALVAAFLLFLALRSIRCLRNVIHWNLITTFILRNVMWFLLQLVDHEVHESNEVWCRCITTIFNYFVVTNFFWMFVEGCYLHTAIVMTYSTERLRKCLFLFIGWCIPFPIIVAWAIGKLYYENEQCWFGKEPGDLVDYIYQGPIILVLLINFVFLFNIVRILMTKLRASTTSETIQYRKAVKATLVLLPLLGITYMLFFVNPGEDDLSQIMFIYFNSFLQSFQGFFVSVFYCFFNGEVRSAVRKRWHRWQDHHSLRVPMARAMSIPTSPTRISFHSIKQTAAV
T3 sequence (P24387 whole entry): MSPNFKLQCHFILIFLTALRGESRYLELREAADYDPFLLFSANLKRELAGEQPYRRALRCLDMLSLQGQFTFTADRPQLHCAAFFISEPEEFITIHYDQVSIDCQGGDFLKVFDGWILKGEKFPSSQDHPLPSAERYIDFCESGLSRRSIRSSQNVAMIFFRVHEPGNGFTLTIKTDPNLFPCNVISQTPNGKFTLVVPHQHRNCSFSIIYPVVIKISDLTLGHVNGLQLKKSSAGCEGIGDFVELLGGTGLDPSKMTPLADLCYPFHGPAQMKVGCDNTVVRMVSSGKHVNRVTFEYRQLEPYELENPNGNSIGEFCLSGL

[2] = molecular target: T3, Corticotropin-releasing factor receptor 2/Corticotropin-releasing factor-binding protein; test: activators of CRF receptor 2 with binding protein – uHTS hits, confirmation (AID 602473); format: functional; details: read-out: EC50_Mean
Beta-galactosidase = Beta-galactosidase (Escherichia coli, UniProt Q8VNN2); test: Dose response counterscreen for EBI2 assay utilizing the enzyme, b-galactosidase.; format: functional
Cytochrome P450 1A2 = molecular target: T4, Cytochrome P450 1A2 (Homo sapiens, UniProt P05177);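 further: PubChem cytochrome P450 panel assay, CYP1A2 panel member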
T4 sequence (P05177 whole entry): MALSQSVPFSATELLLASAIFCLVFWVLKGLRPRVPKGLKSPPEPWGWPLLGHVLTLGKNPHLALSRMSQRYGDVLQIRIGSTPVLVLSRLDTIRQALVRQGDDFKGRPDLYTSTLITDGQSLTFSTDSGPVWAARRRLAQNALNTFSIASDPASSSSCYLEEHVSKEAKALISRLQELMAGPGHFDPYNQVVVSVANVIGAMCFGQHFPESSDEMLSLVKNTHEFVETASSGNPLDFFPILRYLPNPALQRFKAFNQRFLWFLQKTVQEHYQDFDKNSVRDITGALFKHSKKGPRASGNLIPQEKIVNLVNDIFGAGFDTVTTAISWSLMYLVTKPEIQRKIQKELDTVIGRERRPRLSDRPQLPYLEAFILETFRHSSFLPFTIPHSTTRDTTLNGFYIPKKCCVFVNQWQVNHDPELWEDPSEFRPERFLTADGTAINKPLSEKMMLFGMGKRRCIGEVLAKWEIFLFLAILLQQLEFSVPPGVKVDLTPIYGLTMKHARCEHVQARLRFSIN

Cytochrome P450 3A4 = Cytochrome P450 3A4 (Homo sapiens, UniProt P08684);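 further: CYP3A4 tested as one member of a cytochrome P450 panel screen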
[3] = molecular target: Luciferin 4-monooxygenase (Photinus pyralis, UniProt P08659); test: firefly luciferase enzyme inhibitors, dose response, biochemical, luminescence (AID 1891)
[4] = Luminescence Cell-Based Dose Confirmation HTS to Identify Inhibitors of Platelet Dense Granule Release. [Related pubchem assays: 1663 (Primary HTS), 1678 (Summary of Project)]; format: functional

Beta-galactosidase, sequence (Q8VNN2 whole entry): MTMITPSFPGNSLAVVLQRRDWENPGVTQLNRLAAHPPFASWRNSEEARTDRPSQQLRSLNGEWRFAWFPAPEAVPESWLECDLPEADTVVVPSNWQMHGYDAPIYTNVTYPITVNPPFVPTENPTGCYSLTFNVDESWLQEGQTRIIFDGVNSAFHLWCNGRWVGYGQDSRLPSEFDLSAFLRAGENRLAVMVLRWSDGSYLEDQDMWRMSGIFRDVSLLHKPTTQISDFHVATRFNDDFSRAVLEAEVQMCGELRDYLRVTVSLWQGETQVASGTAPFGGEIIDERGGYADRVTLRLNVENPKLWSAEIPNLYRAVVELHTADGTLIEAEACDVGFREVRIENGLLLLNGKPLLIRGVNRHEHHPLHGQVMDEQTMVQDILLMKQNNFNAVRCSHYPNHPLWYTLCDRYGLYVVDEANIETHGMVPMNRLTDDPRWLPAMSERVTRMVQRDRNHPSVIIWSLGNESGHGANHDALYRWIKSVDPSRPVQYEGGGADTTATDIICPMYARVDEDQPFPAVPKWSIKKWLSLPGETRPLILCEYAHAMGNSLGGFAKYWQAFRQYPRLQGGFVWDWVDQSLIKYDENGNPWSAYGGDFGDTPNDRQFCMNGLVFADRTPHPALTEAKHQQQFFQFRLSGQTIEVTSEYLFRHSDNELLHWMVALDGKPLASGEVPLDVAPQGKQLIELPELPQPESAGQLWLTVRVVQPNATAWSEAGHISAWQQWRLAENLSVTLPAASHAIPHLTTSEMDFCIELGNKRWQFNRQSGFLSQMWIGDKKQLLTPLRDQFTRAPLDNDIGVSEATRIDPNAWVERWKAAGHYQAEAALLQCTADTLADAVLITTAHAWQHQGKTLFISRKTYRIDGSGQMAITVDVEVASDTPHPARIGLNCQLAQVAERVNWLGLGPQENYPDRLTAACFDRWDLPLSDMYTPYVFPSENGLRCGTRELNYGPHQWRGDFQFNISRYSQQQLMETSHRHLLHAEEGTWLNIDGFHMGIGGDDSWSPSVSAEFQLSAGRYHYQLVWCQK
Cytochrome P450 3A4, sequence (P08684 whole entry): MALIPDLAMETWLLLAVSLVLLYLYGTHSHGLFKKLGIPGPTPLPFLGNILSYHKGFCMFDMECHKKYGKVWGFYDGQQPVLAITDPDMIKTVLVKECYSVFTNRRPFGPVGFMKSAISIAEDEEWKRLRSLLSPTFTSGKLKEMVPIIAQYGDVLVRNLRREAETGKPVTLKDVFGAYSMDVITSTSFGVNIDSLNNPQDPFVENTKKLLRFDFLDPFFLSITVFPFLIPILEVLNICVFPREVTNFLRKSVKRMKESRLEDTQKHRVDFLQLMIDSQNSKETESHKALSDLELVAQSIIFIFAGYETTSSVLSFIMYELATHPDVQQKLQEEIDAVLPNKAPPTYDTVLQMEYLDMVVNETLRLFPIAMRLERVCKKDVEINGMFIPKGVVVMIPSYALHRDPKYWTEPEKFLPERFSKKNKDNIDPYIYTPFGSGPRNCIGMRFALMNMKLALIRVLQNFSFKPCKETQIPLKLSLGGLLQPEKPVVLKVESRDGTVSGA
Luciferin 4-monooxygenase, sequence (P08659 whole entry): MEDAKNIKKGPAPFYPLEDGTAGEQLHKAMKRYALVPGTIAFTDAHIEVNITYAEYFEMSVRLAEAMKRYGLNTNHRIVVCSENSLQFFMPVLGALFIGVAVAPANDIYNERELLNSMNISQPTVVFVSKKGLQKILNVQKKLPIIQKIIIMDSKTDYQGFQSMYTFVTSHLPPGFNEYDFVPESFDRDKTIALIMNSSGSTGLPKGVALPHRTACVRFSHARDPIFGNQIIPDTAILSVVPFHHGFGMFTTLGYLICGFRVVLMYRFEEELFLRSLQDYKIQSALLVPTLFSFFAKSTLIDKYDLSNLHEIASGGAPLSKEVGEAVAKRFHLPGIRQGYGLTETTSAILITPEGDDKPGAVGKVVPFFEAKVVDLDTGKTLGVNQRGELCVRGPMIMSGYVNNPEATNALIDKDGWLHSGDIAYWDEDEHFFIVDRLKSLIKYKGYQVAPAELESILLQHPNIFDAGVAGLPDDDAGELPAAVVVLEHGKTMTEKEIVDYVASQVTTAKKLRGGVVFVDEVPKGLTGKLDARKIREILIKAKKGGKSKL

## Cc1ccc(C2C3=C(O)CC(C)(C)CC3=Nc3nc(S)nc(O)c32)cc1 (stereo not drawn)
fMet-Leu-Phe receptor
  Ki: 47.9 µM (inactive)

## COc1ccc(-n2c(C)cc(C(=O)COC(=O)Cn3cnc4ccccc43)c2C)cc1
Galanin receptor type 3
  IC50: 0.762 µM (active)
cells
  EC50: > 29.9 µM (inactive)

## COc1ccc(N2CCN(C(=O)c3cc(=O)c4cc(C)c(C)cc4o3)CC2)cc1
[1]
  IC50: > 47.1 µM (inactive)
[2]
  EC50: > 53 µM (inactive)
Beta-galactosidase
  IC50: > 80 µM (inactive)

## COc1ccc(CCN2C(=O)C(O)=C(C(=O)c3ccco3)C2c2cccs2)cc1OC (stereo not drawn)
fMet-Leu-Phe receptor
  Ki: 19 µM (inactive)
Cytochrome P450 1A2
  AC50: 31.6 µM (inconclusive)
Cytochrome P450 3A4
  AC50: 25.1 µM (inconclusive)

## O=C(c1cc2cc(F)ccc2[nH]1)N1CCN(Cc2ccc3c(c2)OCO3)CC1
[3]
  EC50: > 112 µM (not active)
[4]
  EC50: > 112 µM (not active)
Beta-galactosidase
  IC50: > 80 µM (inactive)

## CCC(=O)Nc1c(C#N)c2nc3ccccc3nc2n1-c1ccccc1C
fMet-Leu-Phe receptor
  Ki: 12 µM (active)
